We go through one molecule from US5334761A, “Cationic lipids” (Life Technologies, Inc., priority 1992, dated 1994).

Where a name gives a salt, the structure may show the parent alone.

The subject of data set [1] is BHK-21 cells. Description: CAT transient transfection. It is filed as cell-based, baby hamster. As for the experimental part:
(§1) A one-to-one mixture (by weight) of the desired lipid and dioleylphosphatidyl ethanolamine was prepared in CHCl3. The CHCl3 was removed on the rotary evaporator to obtain a thin film of lipid mixture. The mixture was hydrated with enough water to obtain approximately 1.25 mg of lipid per ml of solution. The solution was passed through a microfluidizer twice and diluted to 1 mg/ml. The liposome formulation was then filtered through a 0.2 μ filter. Compound 8 was also formulated without DOPE either by sonication at 1 mg/ml in water or by dissolving a dried lipid film with ethanol and then adding water to give a final concentration of 2.5 mg/ml. Ethanol was 10% of that volume. In some instances, this was further diluted with water to 1 mg/ml, 4% ethanol.
(§2) Baby hamster kidney (BHK-21) , COS-7, HeLa-S3 cells, and normal human fibroblasts isolated from newborn foreskin dermis were grown in Dulbecco's-modified Eagle's medium (DMEM) containing 10% fetal bovine serum (FBS), 2 mM L-glutamine (gln), 0.1 mM MEM nonessential amino acids (NEAA), 100 U/ml penicillin, and 100 μg/ml streptomycin. […]
Cell lysates were assayed for CAT activity as described by Neumann et al. (1987) BioTechniques 5:444 using [^14 C]-butyryl coenzyme A (New England Nuclear, Boston, Mass.). […] CAT activity was determined by measuring radioactivity in a liquid scintillation counter. […]

In data set [2] the test system is BHK-21 cells. Description: % protein (toxicity estimate, Bradford) after transfection. The class given is cell-based, baby hamster. The protocol:
as §1, §2
(§3) The "% protein" column indicates the relative amount of protein in the sample tested for CAT activity and therefore provides a way to estimate toxicity of the compounds being tested. […] Protein was measured using a commercially available Bradford protein assay (BioRad Laboratories, Richmond, Ca.). […]

For data set [3], the system named is NIH-3T3 cells. Description: CAT transient transfection. The class given is cell-based, mouse. The protocol: as §1
(§4) Baby hamster kidney (BHK-21) , COS-7, HeLa-S3 cells, and normal human fibroblasts isolated from newborn foreskin dermis were grown in Dulbecco's-modified Eagle's medium (DMEM) containing 10% fetal bovine serum (FBS), 2 mM L-glutamine (gln), 0.1 mM MEM nonessential amino acids (NEAA), 100 U/ml penicillin, and 100 μg/ml streptomycin. NIH-3T3 cells were grown in DMEM containing 10% calf serum (CS), 2 mMgln, 0.1 mM NEAA 100 U/ml penicillin, and 100 μg/ml streptomycin. PC12 cells were grown in DMEMcontaining 10% horse serum, 5% FBS, 2 mM gln, 0 1 mMNEAA, 100 U/ml penicillin and 100 μ/ml streptomycin. Jurkat cells (human lymphoid cell line) were grown in RPMI-1640 supplemented with 10% FBS, 2mML-glutamine, 100 U/ml penicillin, and 100 μg/ml streptomycin. Human keratinocytes were isolated from newborn foreskin epidermis and cultured in Keratinocyte Growth Medium (Clonetics, San Diego, Ca.). All cell lines were maintained in a humidified incubator with a 5% CO2 atmosphere at 37° C.
pSV2CAT (5.0 Kb) was described previously (Gorman, C. M. et al. (1982) Mol. Cell. Biol. 2:1044). pCMVCAT (5.0 Kb) was also described previously (Foecking M. K. and Hofstetter, H. (1986) Gene 45:101). Plasmid DNA was purified by isopycnic centrifugation in CsCl/EtBr gradients after recovery by alkaline lysis (Maniatis, T. et al. (1982) in Molecular Cloning: A Laboratory Manual, Cold Spring Harbor Laboratory, Cold Spring Harbor, N.Y., pp. 90-91).
For transient transfection of pSV2CAT DNA or pCMVCAT DNA, cells were plated in 6-well tissue culture dishes (35 mm wells) and incubated overnight to approximately 60% confluency. To transfect cells in one well, 1-2 μg of pSV2CAT DNA or pCMVCAT DNA was diluted in 100 μl Opti-MEM I. Cationic lipids were diluted separately in another 100 μl aliquot of Opti-MEM I. The two solutions were then mixed in a polystyrene tube, incubated for 10-15 min at room temperature to allow the formation of a DNA-liposome complex, and diluted to one ml by adding 0.8 ml Opti-MEM I or DMEM containing 5% fetal bovine serum (FBS), 2 mMgln, 0.1 mMNEAA, and lacking antibiotics. The cells were washed once with Opti-MEM I or serum-free DMEM, and the DNA-liposome complex was added directly to the cells. After a six hr incubation at 37° C., the transfection complexes were removed and two ml of DMEM containing 10% FBS, 2 mMgln, 0.2 mMNEAA, 100 U/ml penicillin, and 100 μg/ml streptomycin, was added to each well. Note: human keratinocytes were cultured and transfected in Keratinocyte Growth Medium. Cells were incubated for an additional 48 hrs and lysed in situ by freeze-thawing once or twice in 300 μl 0.1M Tris-HC1, pH 7.8-8.0 containing 0 1% Triton X-100. Cell lysates were assayed for CAT activity.
Cell lysates were assayed for CAT activity as described by Neumann et al. (1987) BioTechniques 5:444 using [^14 C]-butyryl coenzyme A (New England Nuclear, Boston, Mass.). The enzyme reactions were incubated for 2 hrs at 37° C., overlayed with 3.0 ml Econofluor (New England Nuclear) and then incubated for an additional 2 hrs to allow diffusion of the acetylated chloramphenicol into the scintillation fluid. CAT activity was determined by measuring radioactivity in a liquid scintillation counter. […]

In data set [4] the test system is NIH-3T3 cells. Description: % protein (toxicity estimate, Bradford) after transfection. It is filed as cell-based, mouse. As for the experimental part: as §1, §2, §3
In data set [5] the test system is normal human keratinocytes. Described as above. The class given is cell-based. The protocol: as §1
as §4, with “C. […]” for “C.”
as §3

Assay in data set [6]: as above
The class given is cell-based, rat. The conditions noted are these: rat, pc12 cells; 40 μg lipid; 2 μg pCMVCAT; 6 h DMEM. As for the experimental part:
as §1, §2, §3

A further data set deals with PC12 cells. The description is as above. The class given is cell-based, rat. Particulars: PC12. As for the experimental part:
as §1, §2, §3

Assay in data set [7]: as above
The class given is cell-based. The conditions noted are these: monkey, cos-7 cells; 12 μg lipid; 1 μg pSV2CAT; 6 h DMEM. As for the experimental part: as §1, §2, §3

The subject of a further data set is COS-7 cells. The data set is described as above. Particulars: Cos-7. The class given is cell-based. The protocol: as §1, §2, §3

Broadly, the viability is a read-out of living cells in per cent, often relative to untreated cells. Turning to `CCCCCCCC/C=C\CCCCCCCCOCC(C[N+](C)(C)CCNC(=O)C(CCCNCCCN)NCCCN)OCCCCCCCC/C=C\CCCCCCCC` (stereo not shown) [Compound 8, 1-Propanaminium, N-[2-[[2,5-bis[(3-amino]-1-oxopentyl]amino]ethyl]-n,n-dimethyl-2,3,-bis(9-octadecenyloxy)-, tetra(trifluoroacetate) salt], the “DNA transfection (in words)” value in the data set on BHK-21 cells [1] and in the data set on NIH-3T3 cells [3] (NIH-3T3) was “highly effective” throughout. Also, the “toxicity (in words)” value (with BHK-21 cells [2]; with NIH-3T3 cells [4]; in [5]; in the data set on PC12 cells; in the data set with COS-7 cells) was “minimal toxicity” throughout. Also, the “CAT ACTIVITY” value in the data set on NIH-3T3 cells [3] (15 μg lipid, 2 μg pCMVCAT, 6 h DMEM) is on record as 30,488 CPM/150 ul. In addition, the viability at 6 h in [6] is 66%; in data set [7], 99.1%.
